The values below come from patent US7879843B2, “Benzothiazin-3-one compound and intermediate therefor” (Dainippon Sumitomo Pharma Co., Ltd., priority 2004, dated 2011).

In data set [1] the test system is rat partial-meniscectomy models. Put plainly: Pharmacological test on rat partial-meniscectomy models. It counts as in vivo. Conditions: 50 mg/kg, orally six times per week for 3 weeks, SD (IGS) male rats. An excerpt:
SD (IGS) male rats aged 6 weeks (purchased from Charles River Japan Inc.) were used. The hair on the knee joint portion of right hind leg of each rat was shaved with a hair clipper under etherisation, and then the skin on the joint side of the lateral collateral ligament was incised along the ligament. Subsequently, the fascia was incised and the lateral collateral ligament was resected in a length of about 3 mm. Thereafter, the medial meniscus was exposed and the matters adhering to the meniscus were removed. The meniscus was picked up with tweezers and a part of the meniscus was cut off along the tweezers with microscissors. The fascia and the skin were sutured. One week after the above treatment, the administration of each test compound was started. The volume of the test compound administered was 10 ml/kg (solvent: 0.5% methyl cellulose) and the test compound was orally administered six times per week for 3 weeks. After the body weight was measured, the shinbone of the right hind leg was collected and fixed in 10% neutral buffered formalin. […] The average of scores for rats in each group was calculated and the degree of chondrodegeneration of a pathosis control group was taken as 100%. The chondrodegeneration inhibition rate of each compound was calculated by the following equation: Inhibition rate=1−(average score value of drug-treated group/score value of control group)×100

A further data set addresses T1, human MMP-13 (Homo sapiens, UniProt P45452).
T1 construct: made in house; host or cells: COS-1 cells (pcDNA I vector), culture supernatant
Put plainly: Inhibitory activity against MMP-13 (fluorogenic MCA substrate). The class given is biochemical. Conditions: activated human MMP-13, 37° C. for 12 hours. An excerpt:
As MMP-13, there was used one which had been prepared by genetic engineering (using a well-known human chondrocyte cDNA library as a template, cDNA fragments were amplified by PCR by the use of primers 5′-[…]-3′ (SEQ ID NO: 1) and 5′-[…]-3′ (SEQ ID NO: 2) and each of the cDNA fragments amplified was inserted in a vector pcDNA I, and the vector was introduced into COS-1 cells derived from Afurikamidorizaru kidney, followed by culture and the recovery of the supernatant of a culture medium) on the basis of the well-known genetic base sequence of human MMP-13 (J. Biol. Chem., 269 (24), 16766-16773 (1994)) and had been activated by maintaining the thus prepared MMP-13 at 37° C. for 2 hours in the presence of 1 mM mercury 4-aminophenylacetate.
Inhibitory activity against human MMP-13 was measured according to the method of C. G. Knight et al. (FEBS Lett., 296 (3), 263-266 (1992)).
That is, 45 μl of assay buffer (0.1M Tris-hydrochloric acid, 0.1M sodium chloride, 0.01M calcium chloride, 0.05% Brigy 35, pH=7.5) was placed in a 96-well micro-titer plate for fluorometry, and 5 μl of a solution of a test compound in dimethyl sulfoxide was added thereto. […] After the micro-titer plate was maintained at 37° C. for 12 hours to carry out the reaction, fluorescence was measured with the fluorescence plate reader to measure the residual enzyme activity.

Structures are written as SMILES. Where a name gives a salt, the structure may show the parent alone.

Consider `CCOC(=O)c1ccc2c(c1)N(CC(=O)NO)C(=O)[C@H](CCCc1ccc(OC)cc1)S2` (as salt: TFA) [Example 7, (−)-Ethyl 4-[2-(hydroxyamino)-2-oxoethyl]-2-[3-(4-methoxyphenyl)propyl]-3-oxo-3,4-dihydro-2H-1,4-benzothiazine-6-carboxylate], for which the melting point (in general, the temperature, or range, at which the solid turns liquid) is 143.5 to 144.5 °C. The compound `CCOC(=O)c1ccc2c(c1)N(CC(=O)NO)C(=O)[C@H](CCCc1ccc(OC)cc1)S2` [Example 7, (−)-Ethyl 4-[2-(hydroxyamino)-2-oxoethyl]-2-[3-(4-methoxyphenyl)propyl]-3-oxo-3,4-dihydro-2H-1,4-benzothiazine-6-carboxylate] displayed a chondrodegeneration inhibition rate in data set [1] of 52%. On to `COc1ccc(CCC[C@@H]2Sc3ccc(C(=O)O)cc3N(CC(=O)NO)C2=O)cc1` [Example 14, (−)-4-[2-(Hydroxyamino)-2-oxoethyl]-2-[3-(4-methoxyphenyl)propyl]-3-oxo-3,4-dihydro-2H-1,4-benzothiazine-6-carboxylic acid], for which it took 44 nM to reach half-maximal inhibition against human MMP-13 (IC50).
